{"source": "patent US8247403B2", "about": "“Benzoxazepine derivatives and use thereof” (Takeda Pharmaceutical Company Limited, priority 2007, dated 2012)", "key": {"[1]": {"biological_target": "serotonin 5-HT2C receptor (Homo sapiens, UniProt P28335, I156V/I160V/N158S)", "sequence (P28335 33-458 I156V/N158S/I160V limits assumed)": "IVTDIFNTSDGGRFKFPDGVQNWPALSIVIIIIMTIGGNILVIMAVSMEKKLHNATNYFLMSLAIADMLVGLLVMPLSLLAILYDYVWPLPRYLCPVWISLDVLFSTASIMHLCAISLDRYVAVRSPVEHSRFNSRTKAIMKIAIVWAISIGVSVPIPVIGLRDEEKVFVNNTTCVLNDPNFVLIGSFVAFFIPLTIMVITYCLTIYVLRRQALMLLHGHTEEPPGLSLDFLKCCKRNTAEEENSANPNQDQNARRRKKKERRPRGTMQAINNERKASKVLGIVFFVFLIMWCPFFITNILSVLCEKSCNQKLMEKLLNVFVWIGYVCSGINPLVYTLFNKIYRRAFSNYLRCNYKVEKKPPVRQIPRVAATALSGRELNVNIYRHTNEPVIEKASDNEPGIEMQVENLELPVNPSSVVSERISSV", "experiment": "cell-based", "settings": "CHO, read-out: ratio to maximum response by 5-HT (1 μM)"}, "[2]": {"system": "female spinal cord transected rat whose hypogastric nerve and pudendal nerves were bilaterally cut", "experiment": "Urethral closure response induced by increased bladder pressure in rat with hypogastric and pudendal nerves cut", "type": "in vivo", "description": "SD female rats (body weight 230-274 g) were anesthetized with urethane (Wako Pure Chemical Industries, Ltd.), and the spinal cord was cut at T8-9 level to eliminate the micturition reflex. During the operation, halothane (Takeda Pharmaceutical Company Limited) anesthesia was added as necessary. The abdomen was opened, the bladder neck was ligated with a suture thread, and then, the hypogastric nerve and the pudendal nerves were bilaterally cut. A catheter (PE-90, Clay Adams) was inserted in the bladder, and the other end of the bladder catheter was connected to the pressure transducer and an aquatic reservoir (60 ml syringe) of saline via a three-way cock. A microchip transducer catheter (SPR-524, Millar Instruments Inc.) was inserted from the urethral orifice toward the bladder, and the transducer part was adjusted to be in the urethra at 10.0-15.0 mm from the urethral orifice using the scale on the catheter surface. The topical changes in the urethral pressure (hereinafter to be referred to as urethral pressure for convenience) measured by the microchip transducer were input into a computer via an amplifier (BP Amp; ADINSTRUMENTS) and a data analyzer (Powerlab 4/25; ADINSTRUMENTS; sampled at 1000 Hz), and recorded on a hard disk. […] The response of the urethra induced by the increased bladder pressure was repeatedly measured, and the average value of the last two measures was taken as the value before drug administration. The evaluation item was reflective urethral closure response, and the average urethral pressure for 30 seconds before increasing the bladder pressure and 30 seconds when the bladder pressure was raised to 50 cm was calculated. Then, the value before bladder pressure increase was subtracted from the value during bladder pressure increase and taken as the urethral closure response. […] The drug was dissolved in saline with dimethylformamide, and intravenously administered at 1 ml/kg."}}, "note": "Structures can show the parent of a compound that is named as a salt."}
{"compound": "c1cc2c(cc1N1CCOCC1)OCCNC2", "note": "[Example 1, 8-(morpholin-4-yl)-2,3,4,5-tetrahydro-1,4-benzoxazepine hydrochloride]", "values": [{"measurement": "activation at 1 µM", "setting": "[1]", "value": 95.4, "unit": "%"}]}
{"compound": "c1cc2c(cc1N1CCCC1)OCCNC2", "note": "[Example 2, 8-(pyrrolidin-1-yl)-2,3,4,5-tetrahydro-1,4-benzoxazepine dihydrochloride]", "values": [{"measurement": "activation at 1 µM", "setting": "[1]", "value": 93.1, "unit": "%"}]}
{"compound": "c1cc2c(cc1N1CCCCC1)OCCNC2", "note": "[Example 3, 8-(piperidin-1-yl)-2,3,4,5-tetrahydro-1,4-benzoxazepine dihydrochloride]", "values": [{"measurement": "activation at 1 µM", "setting": "[1]", "value": 94.3, "unit": "%"}]}
{"compound": "CC(C)N(C)c1ccc2c(c1)OCCNC2", "note": "[Example 4, N-isopropyl-N-methyl-2,3,4,5-tetrahydro-1,4-benzoxazepine-8-amine dihydrochloride]", "values": [{"measurement": "activation at 1 µM", "setting": "[1]", "value": 100, "unit": "%"}]}
{"compound": "CCN(CC)c1ccc2c(c1)OCCNC2", "note": "[Example 5, N,N-diethyl-2,3,4,5-tetrahydro-1,4-benzoxazepine-8-amine dihydrochloride]", "values": [{"measurement": "activation at 1 µM", "setting": "[1]", "value": 91.9, "unit": "%"}]}
{"compound": "CCN(C)c1ccc2c(c1)OCCNC2", "note": "[Example 6, N-ethyl-N-methyl-2,3,4,5-tetrahydro-1,4-benzoxazepine-8-amine dihydrochloride]", "values": [{"measurement": "activation at 1 µM", "setting": "[1]", "value": 102, "unit": "%"}]}
{"compound": "c1cc2c(c(N3CCCC3)c1)OCCNC2", "note": "[Example 7, 9-(pyrrolidin-1-yl)-2,3,4,5-tetrahydro-1,4-benzoxazepine dihydrochloride]", "values": [{"measurement": "activation at 1 µM", "setting": "[1]", "value": 107, "unit": "%"}]}
{"compound": "c1ccc(-c2cccc3c2OCCNC3)cc1", "note": "[Example 9, 9-phenyl-2,3,4,5-tetrahydro-1,4-benzoxazepine hydrochloride]", "values": [{"measurement": "activation at 1 µM", "setting": "[1]", "value": 93.1, "unit": "%"}]}
{"compound": "Clc1ccccc1-c1cccc2c1OCCNC2", "note": "[Example 10, 9-(2-chlorophenyl)-2,3,4,5-tetrahydro-1,4-benzoxazepine hydrochloride]", "values": [{"measurement": "activation at 1 µM", "setting": "[1]", "value": 94, "unit": "%"}]}
{"compound": "Cc1ccccc1-c1cccc2c1OCCNC2", "note": "[Example 11, 9-(2-methylphenyl)-2,3,4,5-tetrahydro-1,4-benzoxazepine hydrochloride]", "values": [{"measurement": "activation at 1 µM", "setting": "[1]", "value": 92.7, "unit": "%"}]}
{"compound": "FC(F)(F)c1ccccc1-c1cccc2c1OCCNC2", "note": "[Example 12, 9-[2-(trifluoromethyl)phenyl]-2,3,4,5-tetrahydro-1,4-benzoxazepine hydrochloride]", "values": [{"measurement": "activation at 1 µM", "setting": "[1]", "value": 93.6, "unit": "%"}]}
{"compound": "c1cc2c(c(-c3ccoc3)c1)OCCNC2", "note": "[Example 15, 9-(3-furyl)-2,3,4,5-tetrahydro-1,4-benzoxazepine hydrochloride]", "values": [{"measurement": "activation at 1 µM", "setting": "[1]", "value": 96.2, "unit": "%"}]}
{"compound": "c1cc2c(c(-c3ccsc3)c1)OCCNC2", "note": "[Example 16, 9-(3-thienyl)-2,3,4,5-tetrahydro-1,4-benzoxazepine hydrochloride]", "values": [{"measurement": "activation at 1 µM", "setting": "[1]", "value": 99.1, "unit": "%"}]}
{"compound": "C1=C(c2cccc3c2OCCNC3)CCC1", "note": "[Example 26, 9-(cyclopenta-1-en-1-yl)-2,3,4,5-tetrahydro-1,4-benzoxazepine hydrochloride]", "values": [{"measurement": "activation at 1 µM", "setting": "[1]", "value": 101, "unit": "%"}]}
{"compound": "c1cc2c(c(C3CCOC3)c1)OCCNC2", "note": "(centres unmarked) [Example 55, 9-(tetrahydrofuran-3-yl)-2,3,4,5-tetrahydro-1,4-benzoxazepine hydrochloride]", "values": [{"measurement": "activation at 1 µM", "setting": "[1]", "value": 103, "unit": "%"}]}
{"compound": "FC1(F)CCN(c2cccc3c2OCCNC3)C1", "note": "[Example 58, 9-(3,3-difluoropyrrolidin-1-yl)-2,3,4,5-tetrahydro-1,4-benzoxazepine]", "values": [{"measurement": "activation at 1 µM", "setting": "[1]", "value": 95.5, "unit": "%"}]}
{"compound": "CC(c1cccc2c1OCCNC2)C(F)(F)F", "note": "(centres unmarked) [Example 59, 9-(2,2,2-trifluoro-1-methylethyl)-2,3,4,5-tetrahydro-1,4-benzoxazepine hydrochloride]", "values": [{"measurement": "activation at 1 µM", "setting": "[1]", "value": 95.2, "unit": "%"}]}
{"compound": "Cl.c1cc2c(c(C3CCC3)c1)OCCNC2", "note": "[Example 63, 9-cyclobutyl-2,3,4,5-tetrahydro-1,4-benzoxazepine hydrochloride]", "values": [{"measurement": "Urethral closure response, after drug administration", "setting": "[2]; 3 mg/kg i.v., 10 min after administration, n=6, bladder pressure raised to 50 cm H2O", "value": "6.2 ± 0.9", "unit": "cm H2O"}, {"measurement": "Urethral closure response, increase", "setting": "[2]; 3 mg/kg i.v., difference between after and before drug administration, P < 0.001 vs vehicle", "value": "4.4 ± 0.7", "unit": "cm H2O"}, {"measurement": "Urethral closure response, before drug administration", "setting": "[2]; baseline of the 3 mg/kg i.v. group, n=6, bladder pressure raised to 50 cm H2O", "value": "1.8 ± 0.5", "unit": "cm H2O"}, {"measurement": "effect on urethral closure response induced by increased bladder pressure (in words)", "setting": "[2]; intravenous administration, bladder pressure 0 to 50 cm H2O", "value": "significantly increased the urethral closure response"}, {"measurement": "activation at 1 µM", "setting": "[1]", "value": 97.6, "unit": "%"}]}
{"compound": "c1cc2c(c(C3CC3)c1)OCCNC2", "note": "[Example 64, 9-cyclopropyl-2,3,4,5-tetrahydro-1,4-benzoxazepine hydrochloride]", "values": [{"measurement": "activation at 1 µM", "setting": "[1]", "value": 94.6, "unit": "%"}]}
